The record followed here is patent US20090170838A1, “Bicycloheteroaryl compounds as P2X7 modulators and uses thereof” (Renovis, Inc., priority 2005, published 2009).

SMILES strings stand for the structures.

This assay concerns the target T1, P2X7 receptor (Homo sapiens, UniProt Q99572).
T1 construct: host or cells: THP-1 cells differentiated with LPS and IFN-γ
T1 sequence (Q99572 1-595): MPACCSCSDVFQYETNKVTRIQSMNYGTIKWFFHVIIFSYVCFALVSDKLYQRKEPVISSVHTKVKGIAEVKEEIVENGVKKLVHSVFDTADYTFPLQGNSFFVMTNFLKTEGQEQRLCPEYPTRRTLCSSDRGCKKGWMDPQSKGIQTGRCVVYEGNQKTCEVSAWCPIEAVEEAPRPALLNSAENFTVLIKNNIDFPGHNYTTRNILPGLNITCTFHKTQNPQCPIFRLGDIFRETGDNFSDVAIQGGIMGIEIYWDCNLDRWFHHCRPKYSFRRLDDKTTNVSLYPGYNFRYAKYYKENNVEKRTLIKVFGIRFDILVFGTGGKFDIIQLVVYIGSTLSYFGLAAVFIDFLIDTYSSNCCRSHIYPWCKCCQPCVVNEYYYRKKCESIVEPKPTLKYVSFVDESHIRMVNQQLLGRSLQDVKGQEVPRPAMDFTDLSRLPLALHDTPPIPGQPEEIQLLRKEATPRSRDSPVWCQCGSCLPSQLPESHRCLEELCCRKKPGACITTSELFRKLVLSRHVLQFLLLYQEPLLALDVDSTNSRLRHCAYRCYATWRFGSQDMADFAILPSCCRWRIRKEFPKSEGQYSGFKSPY
Briefly: IL-1β release assay (BzATP-stimulated, LPS/IFN-γ differentiated THP-1 cells, ELISA). Type of assay: cell-based. Particulars: at 0.1 μM (asterisk symbols). The procedure:
THP-1 cells (ATCC Cat # 285-IF-100) are plated in 96 well plates at a concentration of 200,000 cells per well and allowed to differentiate in RPMI-1640 media (ATCC Cat # 30-2001) containing 10% FBS, 100 IU/mL penicillin, 100 ug/mL streptomycin, 100 ng/mL LPS and 100 ng/mL IFN-γ for 16 hours. Following differentiation, the cells are treated for an additional 2 hours in RPMI-1640 media containing 100 IU/mL penicillin, 100 ug/mL streptomycin and fresh LPS at 100 ng/mL. The cells are then pretreated for 30 minutes with the compound of interest at the appropriate concentration in RPMI media containing 100 IU/mL penicillin, 100 ug/mL streptomycin. Following the pretreatment 2′,3′-O-(4-benzoylbenzoyl)-adenosine 5′-triphosphate (Sigma Aldrich Cat# B6396) is added to a final concentration of 250 uM and the cells incubated for an additional 45 minutes. 30 uL of cell supernatant is then collected and […] levels determined via ELISA (R&D systems Cat. # HSLB50) according to manufacturer's recommendations using the Tecan Safire plate reader. Background adjusted IL-1β levels of drug treated and non-treated cells are used to calculate the percent inhibition.
(In general: In an ELISA, binding on a coated surface is turned into a signal by an enzyme label.)
For `CC12CC3CC(C)(C1)CC(CC(=O)Nc1cccc4c(=O)n(Cc5ccc(C(F)(F)F)cc5)ccc14)(C3)C2` [Compound 753], the inhibition at 0.1 µM is at least 75%.

Molecule `CC12CC3CC(C)(C1)CC(CC(=O)Nc1cccc4c(=O)n(Cc5ccc(F)cc5)ccc14)(C3)C2` [Compound 754] displayed an inhibition at 0.1 µM of at least 75%.

Molecule `CC12CC3CC(C)(C1)CC(CC(=O)Nc1cccc4c(=O)n(Cc5ccncc5)ccc14)(C3)C2` [Compound 755] registered an inhibition at 0.1 µM of at least 75%.

On to `CC12CC3CC(C)(C1)CC(CC(=O)Nc1cccc4c(=O)n(Cc5cccnc5)ccc14)(C3)C2` [Compound 756], for which the inhibition at 0.1 µM lay in the range of 50 to 75%.

For `Cc1cnc(Cn2ccc3c(NC(=O)CC45CC6CC(C)(CC(C)(C6)C4)C5)cccc3c2=O)cn1` [Compound 757], the inhibition at 0.1 µM is at least 75%.

The molecule `CC12CC3CC(C)(C1)CC(CC(=O)Nc1cccc4c(=O)n(Cc5cn6ccccc6n5)ccc14)(C3)C2` [Compound 758] showed an inhibition at 0.1 µM of at least 75%.

`CC12CC3CC(C)(C1)CC(CC(=O)Nc1cccc4c(=O)n(Cc5ccc(S(C)(=O)=O)cc5)ccc14)(C3)C2` [Compound 759] came in with an inhibition at 0.1 µM of 50 to 75%.

Take `CC12CC3CC(C)(C1)CC(CC(=O)Nc1cccc4c(=O)n(Cc5ccco5)ccc14)(C3)C2` [Compound 760]: the inhibition at 0.1 µM was 25 to 50%.

Molecule `Cc1cc(Cn2ccc3c(NC(=O)CC45CC6CC(C)(CC(C)(C6)C4)C5)cccc3c2=O)no1` [Compound 761] registered an inhibition at 0.1 µM of 50 to 75%.

For the molecule `CC12CC3CC(C)(C1)CC(CC(=O)Nc1cccc4c(=O)n(CC5COCCO5)ccc14)(C3)C2` (centres unmarked) [Compound 762], the inhibition at 0.1 µM was in the range of 50 to 75%.

The molecule `CN(C)CCn1ccc2c(NC(=O)CC34CC5CC(C)(CC(C)(C5)C3)C4)cccc2c1=O` [Compound 763] showed an inhibition at 0.1 µM of 25 to 50%.

`CC12CC3CC(C)(C1)CC(CC(=O)Nc1cccc4c(=O)n(Cc5ccc(F)cc5F)ccc14)(C3)C2` [Compound 764] had an inhibition at 0.1 µM of at least 75%.

In the case of `CC12CC3CC(C)(C1)CC(CC(=O)Nc1cccc4c1CCN(Cc1ccc(F)cc1F)C4=O)(C3)C2` [Compound 765], the inhibition at 0.1 µM was in the range of 25 to 50%.

`CC12CC3CC(C)(C1)CC(CC(=O)Nc1cccc4c(=O)n(CC5COc6ccccc6O5)ccc14)(C3)C2` (centres unmarked) [Compound 766]: the inhibition at 0.1 µM lay in the range of 50 to 75%.

`CN1CCC(Cn2ccc3c(NC(=O)CC45CC6CC(CC(C6)C4)C5)cccc3c2=O)CC1` [Compound 767]: the inhibition at 0.1 µM was at least 75%.

Regarding `CS(=O)(=O)c1ccc(Cn2ccc3c(NC(=O)CC45CC6CC(CC(C6)C4)C5)cccc3c2=O)cc1` [Compound 768], the inhibition at 0.1 µM lay within 50 to 75%.

As for `O=C(CC12CC3CC(CC(C3)C1)C2)Nc1cccc2c(=O)n(Cc3cccc4c3OCCO4)ccc12` [Compound 769], the inhibition at 0.1 µM is at least 75%.

Turning to `O=C(CC12CC3CC(CC(C3)C1)C2)Nc1cccc2c(=O)n(Cc3cn4ccccc4n3)ccc12` [Compound 770], the inhibition at 0.1 µM was at least 75%.

The molecule `O=C(CC12CC3CC(CC(C3)C1)C2)Nc1cccc2c(=O)n(C[C@H]3CCCO3)ccc12` [Compound 771] registered an inhibition at 0.1 µM of at least 75%.

In turn, `CCN1CCCC1Cn1ccc2c(NC(=O)CC34CC5CC(C)(CC(C)(C5)C3)C4)cccc2c1=O` (centres unmarked) [Compound 772] registered an inhibition at 0.1 µM of 50 to 75%.

The molecule `CC(C)(C)OC(=O)N1CCCC1Cn1ccc2c(NC(=O)CC34CC5CC(CC(C5)C3)C4)cccc2c1=O` (centres unmarked) [Compound 773] showed an inhibition at 0.1 µM of at least 75%.

In turn, `CC(C)(C)OC(=O)N1CCC[C@@H]1Cn1ccc2c(NC(=O)CC34CC5CC(CC(C5)C3)C4)cccc2c1=O` [Compound 774] had an inhibition at 0.1 µM of at least 75%.

The molecule `NC(=O)[C@H](Cc1ccccc1)n1ccc2c(NC(=O)CC34CC5CC(CC(C5)C3)C4)cccc2c1=O` [Compound 776] showed an inhibition at 0.1 µM of at least 75%.

With `CC12CC3CC(C)(C1)CC(CC(=O)Nc1cccc4c1CCN(Cc1ccccc1)C4=O)(C3)C2` [Compound 777], the inhibition at 0.1 µM is at least 75%.

As for `Cc1cnc(CN2CCc3c(NC(=O)CC45CC6CC(C)(CC(C)(C6)C4)C5)cccc3C2=O)cn1` [Compound 778], the inhibition at 0.1 µM was at least 75%.

Molecule `O=C(CC12CC3CC(CC(C3)C1)C2)Nc1cccc2c(=O)n(Cc3ccc4c(c3)OCO4)ccc12` [Compound 779] showed an inhibition at 0.1 µM of at least 75%.

`O=C(CC12CC3CC(CC(C3)C1)C2)Nc1cccc2c(=O)n(CCCN3CCOCC3)ccc12` [Compound 781] gave an inhibition at 0.1 µM of at least 75%.

Turning to `O=C(CC12CC3CC(CC(C3)C1)C2)Nc1cccc2c(=O)n(CCc3cccnc3)ccc12` [Compound 782], the inhibition at 0.1 µM was at least 75%.

On to `O=C(CC12CC3CC(CC(C3)C1)C2)Nc1cccc2c(=O)n(CCN3CCCC3)ccc12` [Compound 783], for which the inhibition at 0.1 µM was at least 75%.

`O=C(CC12CC3CC(CC(C3)C1)C2)Nc1cccc2c(=O)n(CCc3ccncc3)ccc12` [Compound 784] displayed an inhibition at 0.1 µM of at least 75%.

In the case of `O=C(CC12CC3CC(CC(C3)C1)C2)Nc1cccc2c(=O)n(CCc3ccccn3)ccc12` [Compound 785], the inhibition at 0.1 µM fell in the range of 50 to 75%.

On to `O=C(CC12CC3CC(CC(C3)C1)C2)Nc1cccc2c(=O)n(CCN3CCSCC3)ccc12` [Compound 786], for which the inhibition at 0.1 µM was at least 75%.

Consider `CN1CCN(CCCn2ccc3c(NC(=O)CC45CC6CC(CC(C6)C4)C5)cccc3c2=O)CC1` [Compound 787], for which the inhibition at 0.1 µM was at least 75%.

Take `CN1CCCC1CCn1ccc2c(NC(=O)CC34CC5CC(CC(C5)C3)C4)cccc2c1=O` (centres unmarked) [Compound 788]: the inhibition at 0.1 µM is at least 75%.

As for `O=C(CC12CC3CC(CC(C3)C1)C2)Nc1cccc2c(=O)n(CCCN3CCCC3)ccc12` [Compound 789], the inhibition at 0.1 µM was at least 75%.

Regarding `O=C(CC12CC3CC(CC(C3)C1)C2)Nc1cccc2c1CCN(Cc1ccccc1F)C2=O` [Compound 790], the inhibition at 0.1 µM was at least 75%.

Turning to `O=C(CC12CC3CC(CC(C3)C1)C2)Nc1cccc2c1CCN(Cc1ccc3c(c1)OCCO3)C2=O` [Compound 791], the inhibition at 0.1 µM was at least 75%.

`O=C(CC12CC3CC(CC(C3)C1)C2)Nc1cccc2c(=O)n(Cc3ccccc3Cl)ccc12` [Compound 793]: the inhibition at 0.1 µM is at least 75%.

`CN1CCC(CN2CCc3c(NC(=O)CC45CC6CC(CC(C6)C4)C5)cccc3C2=O)CC1` [Compound 794] had an inhibition at 0.1 µM of at least 75%.

As to `O=C(CC12CC3CC(CC(C3)C1)C2)Nc1cccc2c1CCN(Cc1ccccn1)C2=O` [Compound 795], the inhibition at 0.1 µM is at least 75%.

Regarding `O=C(CC12CC3CC(CC(C3)C1)C2)Nc1cccc2c1CCN(CC1COCCO1)C2=O` (centres unmarked) [Compound 796], the inhibition at 0.1 µM is at least 75%.

On to `Cc1cc(CN2CCc3c(NC(=O)CC45CC6CC(CC(C6)C4)C5)cccc3C2=O)nn1C` [Compound 797], for which the inhibition at 0.1 µM is at least 75%.

`O=C(CC12CC3CC(CC(C3)C1)C2)Nc1cccc2c1CCN(Cc1c(F)cccc1F)C2=O` [Compound 798] registered an inhibition at 0.1 µM of at least 75%.

Consider `O=C(CC12CC3CC(CC(C3)C1)C2)Nc1cccc2c1CCN(Cc1ccc(F)c(F)c1)C2=O` [Compound 799], for which the inhibition at 0.1 µM was at least 75%.

In turn, `CN(C)CCN1CCc2c(NC(=O)CC34CC5CC(CC(C5)C3)C4)cccc2C1=O` [Compound 800] gave an inhibition at 0.1 µM of 50 to 75%.

As to `Cc1cc(CN2CCc3c(NC(=O)CC45CC6CC(CC(C6)C4)C5)cccc3C2=O)no1` [Compound 801], the inhibition at 0.1 µM is at least 75%.

In turn, `O=C(CC12CC3CC(CC(C3)C1)C2)Nc1cccc2c1CCN(CCc1c[nH]cn1)C2=O` [Compound 802] yielded an inhibition at 0.1 µM of at least 75%.

For `CC12CC3CC(C)(C1)CC(CC(=O)Nc1cccc4c(=O)n(Cc5ccc6c(c5)OCCO6)ccc14)(C3)C2` [Compound 803], the inhibition at 0.1 µM is at least 75%.

Molecule `Cn1ccc2c(NC(=O)CC34CC5CC(CC(C5)C3)C4)cccc2c1=O` [Compound 805, adamantyl-N-(2-methyl-1-oxo-1,2-dihydroisoquinolin-5-yl)acetamide] gave an inhibition at 0.1 µM of at least 75%.

With `CC1CNC(CN2CCc3c(NC(=O)CC45CC6CC(CC(C6)C4)C5)cccc3C2=O)CN1` (centres unmarked) [Compound 806], the inhibition at 0.1 µM is at least 75%.

On to `CC12CC3CC(C)(C1)CC(CC(=O)Nc1cccc4c1CCN(Cc1ccccn1)C4=O)(C3)C2` [Compound 807], for which the inhibition at 0.1 µM lay within 0 to 25%.

Regarding `O=C(CC12CC3CC(CC(C3)C1)C2)Nc1cccc2c(=O)n(CCc3c[nH]cn3)ccc12` [Compound 808], the inhibition at 0.1 µM is at least 75%.

Take `O=C(CC12CC3CC(CC(C3)C1)C2)Nc1cccc2c(=O)n(CC3CCCN3)ccc12` (centres unmarked) [Compound 809]: the inhibition at 0.1 µM was at least 75%.

Usually inhibition stands for the change of the read-out against control, counted positive when it falls. Read a high inhibition as a response far below the control.
